Measured values from PMC7893776, “Selecting an anti-malarial clinical candidate from two potent dihydroisoquinolones” (Malaria Journal, 2021).
Values after ≈ are worked out from the molar mass of the structure shown. Blank lines part the entries; values can stand above or below the compound they belong to.

Assays:
[1] = Kinetic solubility; format: physicochemical
Procedure: Solubility assays were carried out on a Biomek FX lab automation workstation (Beckman Coulter, Inc., Fullerton, CA) using µSOL Evolution software (pION Inc., Woburn, MA). Compound stock (10 mM in DMSO, 10 µL) was added to 1-propanol (190 µL) to make a reference stock plate. Reference stock solution (5 µL) was mixed with 1-propanol (70 µL) and citrate phosphate buffered saline (75 µL) to make the reference plate and the UV spectrum (250 nm–500 nm) of the […] was read. Test compound stock (10 mM in DMSO, 6 µL) was added to buffer (594 µL) in a 96-well storage plate and mixed. The storage plate was sealed and incubated at room temperature for 18 h. The suspension was then filtered through a 96-well filter plate (pION Inc., Woburn, MA). Filtrate (75 µL) was mixed with 1-propanol (75 µL) to make the sample plate, and the UV spectrum (250 nm – 500 nm) of the sample plate was read. Calculation was carried out by µSOL Evolution software based on the […] (area under curve) of UV spectrum of the sample plate and the reference plate. All compounds were tested in triplicate.

[2] = Parallel artificial membrane permeability assay (PAMPA); format: in vitro ADME
Procedure: The assay was conducted using a Biomek FX lab automation workstation (Beckman Coulter, Inc., Fullerton, CA) with PAMPA evolution 96 command software (pION Inc., Woburn, MA). Test compound stock (10 mM in DMSO, 3 µL) was mixed with citrate phosphate buffered saline (597 µL) to make diluted test compound. Diluted test compound (150 µL) was transferred to a UV plate (pION Inc., Woburn, MA) and the UV spectrum (250–500 nm) was read as the reference plate. Each well of the donor plate in a PAMPA sandwich plate (pION Inc., Woburn, MA) contained a filter that was painted on one side with 4 µL GIT lipid (pION Inc., Woburn, MA) to form a membrane. Each well in the acceptor plate in a PAMPA sandwich, preloaded with magnetic stir bars, was filled with acceptor solution buffer (200 µL, pION Inc., Woburn, MA). The donor plate was filled with diluted test compound (180 µL). The combined PAMPA plate was placed on a pIon Gut-box™ and stirred for 30 min. The UV spectrum (250–500 nm) of the donor and the acceptor were read. The permeability coefficient and recovery were calculated using PAMPA evolution 96 command software (pION Inc., Woburn, MA) based on the whole spectrum measured from the reference plate, the donor plate, and the acceptor plate. All compounds were tested in triplicate.

[3] = Thermodynamic solubility; format: physicochemical; conditions: for solubility thermodynamic: 37 °C, thermodynamic from solid
Procedure: Solubility was also evaluated in fasted (FaSSIF-V2) or fed (FeSSIF-V2) state simulated intestinal fluids. These media contain lipolysis breakdown products (glycerol monooleate and oleic acid) in addition to bile salt (sodium taurocholate) and phospholipid (lecithin) and were buffered to simulate approximate pH conditions found in the fasted (pH 6.5) or fed (pH 5.8) state small intestine. Control media (blank FaSSIF-V2 and FeSSIF-V2 buffers) lacking bile salt, phospholipid and lipolysis products were also investigated.
Compounds were weighed into individual screw cap polypropylene tubes and aqueous buffer, 0.1 N HCl, or simulated intestinal fluid added to provide a compound concentration of between 700 and 5000 μg/mL. Samples were vortexed, placed in a 37 °C incubator, and mixed on an orbital shaker (IKA® VXR basic Vibrax® orbital shaker) set at 600 rpm. Samples were regularly examined to ensure excess solid was present. Sampling was conducted after 1, 4, 6, and 24 h by centrifuging each sample at 10,000 rpm for 3 min, transferring a 200 µL aliquot into fresh Eppendorf tubes, and centrifuging again at 10,000 rpm for 3 min. Duplicate aliquots of the final supernatant were removed and diluted to an appropriate analytical concentration in 50% aqueous methanol prior to analysis by HPLC. HPLC analysis was conducted on a Waters 2695 HPLC system coupled to a Waters 2487 dual absorbance wavelength detector, analyzing at 254 nm. A Phenomenex Luna C18(2) column (3 µm, 50 × 2.0 mm i.d.) was used for analysis, with the column temperature maintained at 40 °C. Concentrations were quantified by comparison to a calibration curve prepared over the concentration range in 50% aqueous methanol. The mobile phase consisted of water, methanol, and 1% aqueous formic acid. Separations were conducted using a flow rate of 0.4 mL/min and an injection volume of 5 µL. Processed samples were maintained in the autosampler at a temperature of 10 °C.

[4] = Storage stability of samples at −80 °C; conditions: stored at − 80 °C for more than 14 days, ± 15% variance
Text: All plasma samples that were shipped elsewhere from the testing facility were all analyzed within the validated stability time period.

solubility thermodynamic ([3]; 0.1 N HCl, pH 1, simulated gastric fluid, strongly acidic conditions): > 3000 µg/mL | solubility thermodynamic ([3]; aqueous buffer, pH 7.4, 6.5, and 5.8 aqueous buffers): 81 to 237 µM | storage stability [4]: stable
SMILES: N#Cc1cc(NC(=O)[C@H]2c3ccccc3C(=O)N(CC(F)(F)F)[C@@H]2c2cccnc2)ccc1F (racemic) [SJ733]

storage stability [4]: stable
SMILES: N#Cc1cc(NC(=O)[C@H]2c3ccccc3C(=O)N(CC(F)(F)F)[C@@H]2c2cn[nH]c2)ccc1F [SJ311]

Continued, compound first:

SMILES: N#Cc1cc(NC(=O)C2c3ccccc3C(=O)N(CC(F)(F)F)C2c2cn[nH]c2)ccc1F (racemic) [(r)-SJ311]
Kinetic solubility ([1]; pH 3): 80 ± 7 µM | Kinetic solubility ([1]; pH 5): 80 ± 7 µM | Kinetic solubility ([1]; pH 7.4): 66 ± 7 µM | Permeability, PAMPA ([2]; pH 3): 17 ± 2.3 10^–6 cm/s | Permeability, PAMPA ([2]; pH 5): 15 ± 6.7 10^–6 cm/s | Permeability, PAMPA ([2]; pH 7.4): 9.4 ± 7.0 10^–6 cm/s

SMILES: N#Cc1cc(NC(=O)C2c3ccccc3C(=O)N(CC(F)(F)F)C2c2cccnc2)ccc1F (racemic) [(r)-SJ733]
Kinetic solubility ([1]; pH 3): 84 ± 3 µM | Kinetic solubility ([1]; pH 5): 84 ± 3 µM | Kinetic solubility ([1]; pH 7.4): 65 ± 4 µM | Permeability, PAMPA ([2]; pH 3): 66 ± 3.5 10^–6 cm/s | Permeability, PAMPA ([2]; pH 5): 380 ± 7.2 10^–6 cm/s | Permeability, PAMPA ([2]; pH 7.4): 350 ± 130 10^–6 cm/s

SMILES: N#Cc1cc(NC(=O)[C@H]2c3ccccc3C(=O)N(CC(F)(F)F)[C@@H]2c2cccnc2)ccc1F [(+)-SJ733]
Solubility ([3]; 0.1 N HCl pH 1, 37°C, 1 h): 6817 µM (≈ 3190 µg/mL) | Solubility ([3]; 0.1 N HCl pH 1, 37°C, 4 h): 7321 µM (≈ 3430 µg/mL) | Solubility ([3]; 0.1 N HCl pH 1, 37°C, 6 h): 7376 µM (≈ 3450 µg/mL) | Solubility ([3]; 0.1 N HCl pH 1, 37°C, 24 h): 7891 µM (≈ 3700 µg/mL) | Solubility ([3]; FaSSIF blank pH 6.5, 37°C, 1 h): 81 µM (≈ 37.9 µg/mL) | Solubility ([3]; FaSSIF blank pH 6.5, 37°C, 4 h): 92 µM (≈ 43.1 µg/mL) | Solubility ([3]; FaSSIF blank pH 6.5, 37°C, 6 h): 96 µM (≈ 45 µg/mL) | Solubility ([3]; FaSSIF blank pH 6.5, 37°C, 24 h): 100 µM (≈ 46.8 µg/mL) | Solubility ([3]; FaSSIF-V2 pH 6.5, 37°C, 1 h): 199 µM (≈ 93.2 µg/mL) | Solubility ([3]; FaSSIF-V2 pH 6.5, 37°C, 4 h): 216 µM (≈ 101 µg/mL) | Solubility ([3]; FaSSIF-V2 pH 6.5, 37°C, 24 h): 207 µM (≈ 97 µg/mL) | Solubility ([3]; FeSSIF blank pH 5.8, 37°C, 1 h): 83 µM (≈ 38.9 µg/mL) | Solubility ([3]; FeSSIF blank pH 5.8, 37°C, 4 h): 88 µM (≈ 41.2 µg/mL) | Solubility ([3]; FeSSIF blank pH 5.8, 37°C, 6 h): 100 µM (≈ 46.8 µg/mL) | Solubility ([3]; FeSSIF blank pH 5.8, 37°C, 24 h): 107 µM (≈ 50.1 µg/mL) | Solubility ([3]; FeSSIF-V2 pH 5.8, 37°C, 1 h): 237 µM (≈ 111 µg/mL) | Solubility ([3]; FeSSIF-V2 pH 5.8, 37°C, 4 h): 250 µM (≈ 117 µg/mL) | Solubility ([3]; FeSSIF-V2 pH 5.8, 37°C, 24 h): 248 µM (≈ 116 µg/mL) | Solubility ([3]; Phosphate buffer pH 7.4, 37°C, 1 h): 207 µM (≈ 97 µg/mL) | Solubility ([3]; Phosphate buffer pH 7.4, 37°C, 4 h): 250 µM (≈ 117 µg/mL) | Solubility ([3]; Phosphate buffer pH 7.4, 37°C, 24 h): 250 µM (≈ 117 µg/mL)
